Assay results reported in PubChem BioAssay (NCI).
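Five compound concentrations were applied to cells in 96-well plates for 48 hours; endpoints were derived by simple linear interpolation of the resulting dose-response curve. GI50 marks 50% less growth. The concentration for full growth arrest is given as TGI.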

Columns and labels:
Assay in all cases: NCI tumour cell line growth inhibition, 48 h
IGROV1 ovarian = system: IGROV1 ovarian
HCT-116 colon = system: HCT-116 colon
KM20L2 colon = system: KM20L2 colon
TK-10 renal = system: TK-10 renal
SNB-75 CNS = system: SNB-75 CNS
LOX IMVI melanoma = system: LOX IMVI melanoma
LXFL 529 NSCLC = system: LXFL 529 NSCLC
NCI-H460 lung = system: NCI-H460 lung
T-47D breast = system: T-47D breast
NCI/ADR-RES ovarian = system: NCI/ADR-RES ovarian

Row | Compound | TGI (IGROV1 ovarian) | TGI (HCT-116 colon) | TGI (KM20L2 colon) | TGI (TK-10 renal) | TGI (SNB-75 CNS) | TGI (LOX IMVI melanoma) | TGI (LXFL 529 NSCLC) | TGI (NCI-H460 lung) | TGI (T-47D breast) | TGI (NCI/ADR-RES ovarian) | GI50 (IGROV1 ovarian) | GI50 (HCT-116 colon) | GI50 (KM20L2 colon) | GI50 (TK-10 renal) | GI50 (SNB-75 CNS) | GI50 (LOX IMVI melanoma) | GI50 (LXFL 529 NSCLC) | GI50 (NCI-H460 lung)
1 | C[N+]1=c2c3cccc4cccc(c(=O)n2CC1)c43 | 60.5 µM | 17.3 µM | 43.3 µM | 38.8 µM | 45 µM | 17.6 µM | 42.4 µM | 28.2 µM | – | – | – | – | – | – | – | – | – | –
2 | COc1cc(/C=C/c2ccc(C)cc2)cc(OC)c1OC | > 91 µM | 14.2 µM | 4.69 µM | 18 µM | 8.05 µM | 13.5 µM | > 48.8 µM | > 32.8 µM | 20.6 µM | 4.9 µM | – | – | – | – | – | – | – | –
3 | CCC[CH2][Sn]([CH2]CCC)([O]C(=O)c1cc(OC)c(OC)cc1OC)[O][Sn]([CH2]CCC)([CH2]CCC)[O]C(=O)c1cc(OC)c(OC)cc1OC | 2.68 µM | 1.82 µM | 2.56 µM | 2.86 µM | 0.7 µM | 0.782 µM | 0.214 µM | 2.85 µM | – | – | 1.17 µM | 0.67 µM | 1.21 µM | 1.53 µM | 0.124 µM | 0.257 µM | 0.0599 µM | 1.3 µM
4 | CCOC(=O)N1C/C(=C\c2ccccc2)C(=O)/C(=C/c2ccccc2)C1 | 11.7 µM | 2.75 µM | 22.4 µM | 26.4 µM | 22.4 µM | 3.63 µM | 12.4 µM | 42.4 µM | > 31.6 µM | 36.6 µM | – | – | – | – | – | – | – | –
5 | C=CCn1c(=S)sc2c(C(=O)OCC)c3c(C)cc(C)cn3c2c1=O | > 100 µM | > 100 µM | > 100 µM | > 100 µM | > 100 µM | > 100 µM | > 100 µM | > 100 µM | – | – | – | – | – | – | – | – | – | –
6 | COc1cc(CNc2nc3c(N)cc(C(F)(F)F)cc3nc2-c2ccccc2)cc(OC)c1OC | > 100 µM | > 100 µM | > 100 µM | > 100 µM | > 100 µM | > 100 µM | > 100 µM | > 100 µM | – | – | > 100 µM | – | – | > 100 µM | – | – | – | –
7 | C/C(CC(=O)NCCc1ccccc1)=N\NS(=O)(=O)c1ccc(C)cc1 | > 100 µM | > 100 µM | > 100 µM | > 100 µM | > 100 µM | > 100 µM | > 100 µM | > 100 µM | – | – | – | – | – | – | – | – | – | –
8 | O=C1C2C(C(=O)N1c1ccccc1)C1c3ccccc3C2C2C(=O)N(c3ccccc3)C(=O)C21 (centres undefined) | > 100 µM | > 100 µM | 42.8 µM | > 100 µM | 22.6 µM | > 100 µM | > 100 µM | > 100 µM | – | – | – | – | – | – | – | – | – | –
9 | COc1ccccc1N=Nc1c(-c2ccccc2)nn(C(=O)CC(=O)Nc2cccc(C)c2)c1-c1ccccc1 | > 100 µM | > 100 µM | 88.1 µM | > 100 µM | 93.5 µM | > 100 µM | > 100 µM | > 100 µM | – | – | – | – | – | – | – | – | – | –
10 | Cc1ccc(S(=O)(=O)N/N=C(\c2nc3ccc(Cl)cc3[nH]c2=O)C(O)c2ccco2)cc1 (centres undefined) | > 100 µM | > 100 µM | > 100 µM | > 100 µM | > 100 µM | > 100 µM | > 100 µM | > 100 µM | – | – | – | – | – | – | – | – | – | –
